Measurements: the supplement of paper PMC8882468

Tested on: HCI-010 (organoid from a breast cancer xenograft)
Assay: CTG-3D luminescence at 96 h relative to day-0 seeding control (ratio to day 0); higher = more growth / less cytotoxicity; PDxO 3D drug screen, 96 h, CTG-3D normalised to day-0 seeding control.
Settings: 12.5 pM; days in culture: 52

Going from `CC(C)(C(=O)NCC(F)(F)C(F)(F)F)C(=O)N[C@@H]1C(=O)Nc2ccccc2-c2ccccc21` to `C=CC(=O)N1CCC[C@@H](n2nc(-c3ccc(Oc4ccccc4)cc3)c3c(N)ncnc32)C1` [ibrutinib], the “CTG-3D luminescence at 96 h” value rises from 2.08 to 2.16.

Going from `CNC(=O)c1cccc(-c2ccc3c(N4CCOC[C@@H]4C)nc(N4CCOC[C@@H]4C)nc3n2)c1` [vistusertib] to `CCN(c1cc(C#CCN2CCOCC2)cc(C(=O)NCc2c(C)cc(C)[nH]c2=O)c1C)[C@H]1CC[C@H](N(C)CCOC)CC1`, the “CTG-3D luminescence at 96 h” value falls from 2.1 to 1.83.

Same assay, conditions: 12.5 pM; days in culture: 65

Going from `CC(C)(C(=O)NCC(F)(F)C(F)(F)F)C(=O)N[C@@H]1C(=O)Nc2ccccc2-c2ccccc21` to `C=CC(=O)N1CCC[C@@H](n2nc(-c3ccc(Oc4ccccc4)cc3)c3c(N)ncnc32)C1` [ibrutinib], the “CTG-3D luminescence at 96 h” value rises from 1.59 to 1.67.

First: CNC(=O)c1cccc(-c2ccc3c(N4CCOC[C@@H]4C)nc(N4CCOC[C@@H]4C)nc3n2)c1 [vistusertib]
Second: CCN(c1cc(C#CCN2CCOCC2)cc(C(=O)NCc2c(C)cc(C)[nH]c2=O)c1C)[C@H]1CC[C@H](N(C)CCOC)CC1
The “CTG-3D luminescence at 96 h” value of the first is higher: 1.67 for the first, 1.6 for the second.

Same assay, conditions: 12.5 pM; days in culture: 103

First: CC(C)(C(=O)NCC(F)(F)C(F)(F)F)C(=O)N[C@@H]1C(=O)Nc2ccccc2-c2ccccc21
Second: C=CC(=O)N1CCC[C@@H](n2nc(-c3ccc(Oc4ccccc4)cc3)c3c(N)ncnc32)C1 [ibrutinib]
The “CTG-3D luminescence at 96 h” value of the first is lower: 2.86 for the first, 3.5 for the second.

Going from `CNC(=O)c1cccc(-c2ccc3c(N4CCOC[C@@H]4C)nc(N4CCOC[C@@H]4C)nc3n2)c1` [vistusertib] to `CCN(c1cc(C#CCN2CCOCC2)cc(C(=O)NCc2c(C)cc(C)[nH]c2=O)c1C)[C@H]1CC[C@H](N(C)CCOC)CC1`, the “CTG-3D luminescence at 96 h” value falls from 3.33 to 3.17.

Same assay, conditions: 0.00025 µM; days in culture: 52

First: CC(C)(C(=O)NCC(F)(F)C(F)(F)F)C(=O)N[C@@H]1C(=O)Nc2ccccc2-c2ccccc21
Second: C=CC(=O)N1CCC[C@@H](n2nc(-c3ccc(Oc4ccccc4)cc3)c3c(N)ncnc32)C1 [ibrutinib]
The “CTG-3D luminescence at 96 h” value of the first is lower: 1.91 for the first, 2.15 for the second.

Compared with `CNC(=O)c1cccc(-c2ccc3c(N4CCOC[C@@H]4C)nc(N4CCOC[C@@H]4C)nc3n2)c1` [vistusertib], `CCN(c1cc(C#CCN2CCOCC2)cc(C(=O)NCc2c(C)cc(C)[nH]c2=O)c1C)[C@H]1CC[C@H](N(C)CCOC)CC1` is higher in “CTG-3D luminescence at 96 h” value: 2.32 for the first, 2.5 for the second.

Same assay, conditions: 0.00025 µM; days in culture: 65

Going from `CC(C)(C(=O)NCC(F)(F)C(F)(F)F)C(=O)N[C@@H]1C(=O)Nc2ccccc2-c2ccccc21` to `C=CC(=O)N1CCC[C@@H](n2nc(-c3ccc(Oc4ccccc4)cc3)c3c(N)ncnc32)C1` [ibrutinib], the “CTG-3D luminescence at 96 h” value falls from 1.67 to 1.66.

Compared with `CNC(=O)c1cccc(-c2ccc3c(N4CCOC[C@@H]4C)nc(N4CCOC[C@@H]4C)nc3n2)c1` [vistusertib], `CCN(c1cc(C#CCN2CCOCC2)cc(C(=O)NCc2c(C)cc(C)[nH]c2=O)c1C)[C@H]1CC[C@H](N(C)CCOC)CC1` is higher in “CTG-3D luminescence at 96 h” value: 1.73 for the first, 1.76 for the second.

Same assay, conditions: 0.00025 µM; days in culture: 103

Going from `CC(C)(C(=O)NCC(F)(F)C(F)(F)F)C(=O)N[C@@H]1C(=O)Nc2ccccc2-c2ccccc21` to `C=CC(=O)N1CCC[C@@H](n2nc(-c3ccc(Oc4ccccc4)cc3)c3c(N)ncnc32)C1` [ibrutinib], the “CTG-3D luminescence at 96 h” value rises from 2.96 to 3.57.

Going from `CNC(=O)c1cccc(-c2ccc3c(N4CCOC[C@@H]4C)nc(N4CCOC[C@@H]4C)nc3n2)c1` [vistusertib] to `CCN(c1cc(C#CCN2CCOCC2)cc(C(=O)NCc2c(C)cc(C)[nH]c2=O)c1C)[C@H]1CC[C@H](N(C)CCOC)CC1`, the “CTG-3D luminescence at 96 h” value falls from 3.37 to 3.22.

Same assay, conditions: 0.005 µM; days in culture: 52

Going from `CC(C)(C(=O)NCC(F)(F)C(F)(F)F)C(=O)N[C@@H]1C(=O)Nc2ccccc2-c2ccccc21` to `C=CC(=O)N1CCC[C@@H](n2nc(-c3ccc(Oc4ccccc4)cc3)c3c(N)ncnc32)C1` [ibrutinib], the “CTG-3D luminescence at 96 h” value falls from 2.38 to 2.34.

First: CNC(=O)c1cccc(-c2ccc3c(N4CCOC[C@@H]4C)nc(N4CCOC[C@@H]4C)nc3n2)c1 [vistusertib]
Second: CCN(c1cc(C#CCN2CCOCC2)cc(C(=O)NCc2c(C)cc(C)[nH]c2=O)c1C)[C@H]1CC[C@H](N(C)CCOC)CC1
The “CTG-3D luminescence at 96 h” value of the first is lower: 2.14 for the first, 2.34 for the second.

Same assay, conditions: 0.005 µM; days in culture: 65

Going from `CC(C)(C(=O)NCC(F)(F)C(F)(F)F)C(=O)N[C@@H]1C(=O)Nc2ccccc2-c2ccccc21` to `C=CC(=O)N1CCC[C@@H](n2nc(-c3ccc(Oc4ccccc4)cc3)c3c(N)ncnc32)C1` [ibrutinib], the “CTG-3D luminescence at 96 h” value falls from 1.85 to 1.79.

Going from `CNC(=O)c1cccc(-c2ccc3c(N4CCOC[C@@H]4C)nc(N4CCOC[C@@H]4C)nc3n2)c1` [vistusertib] to `CCN(c1cc(C#CCN2CCOCC2)cc(C(=O)NCc2c(C)cc(C)[nH]c2=O)c1C)[C@H]1CC[C@H](N(C)CCOC)CC1`, the “CTG-3D luminescence at 96 h” value rises from 1.69 to 1.72.

Same assay, conditions: 0.005 µM; days in culture: 103

Compared with `CC(C)(C(=O)NCC(F)(F)C(F)(F)F)C(=O)N[C@@H]1C(=O)Nc2ccccc2-c2ccccc21`, `C=CC(=O)N1CCC[C@@H](n2nc(-c3ccc(Oc4ccccc4)cc3)c3c(N)ncnc32)C1` [ibrutinib] is higher in “CTG-3D luminescence at 96 h” value: 2.93 for the first, 3.54 for the second.

Going from `CNC(=O)c1cccc(-c2ccc3c(N4CCOC[C@@H]4C)nc(N4CCOC[C@@H]4C)nc3n2)c1` [vistusertib] to `CCN(c1cc(C#CCN2CCOCC2)cc(C(=O)NCc2c(C)cc(C)[nH]c2=O)c1C)[C@H]1CC[C@H](N(C)CCOC)CC1`, the “CTG-3D luminescence at 96 h” value falls from 3.25 to 3.07.

Same assay, conditions: 0.1 µM; days in culture: 52

Going from `CC(C)(C(=O)NCC(F)(F)C(F)(F)F)C(=O)N[C@@H]1C(=O)Nc2ccccc2-c2ccccc21` to `C=CC(=O)N1CCC[C@@H](n2nc(-c3ccc(Oc4ccccc4)cc3)c3c(N)ncnc32)C1` [ibrutinib], the “CTG-3D luminescence at 96 h” value rises from 2.13 to 2.35.

Going from `CNC(=O)c1cccc(-c2ccc3c(N4CCOC[C@@H]4C)nc(N4CCOC[C@@H]4C)nc3n2)c1` [vistusertib] to `CCN(c1cc(C#CCN2CCOCC2)cc(C(=O)NCc2c(C)cc(C)[nH]c2=O)c1C)[C@H]1CC[C@H](N(C)CCOC)CC1`, the “CTG-3D luminescence at 96 h” value rises from 1.57 to 2.47.

Same assay, conditions: 0.1 µM; days in culture: 65

Going from `CC(C)(C(=O)NCC(F)(F)C(F)(F)F)C(=O)N[C@@H]1C(=O)Nc2ccccc2-c2ccccc21` to `C=CC(=O)N1CCC[C@@H](n2nc(-c3ccc(Oc4ccccc4)cc3)c3c(N)ncnc32)C1` [ibrutinib], the “CTG-3D luminescence at 96 h” value falls from 1.82 to 1.73.

First: CNC(=O)c1cccc(-c2ccc3c(N4CCOC[C@@H]4C)nc(N4CCOC[C@@H]4C)nc3n2)c1 [vistusertib]
Second: CCN(c1cc(C#CCN2CCOCC2)cc(C(=O)NCc2c(C)cc(C)[nH]c2=O)c1C)[C@H]1CC[C@H](N(C)CCOC)CC1
The “CTG-3D luminescence at 96 h” value of the first is lower: 1.14 for the first, 1.49 for the second.

Same assay, conditions: 0.1 µM; days in culture: 103

Compared with `CC(C)(C(=O)NCC(F)(F)C(F)(F)F)C(=O)N[C@@H]1C(=O)Nc2ccccc2-c2ccccc21`, `C=CC(=O)N1CCC[C@@H](n2nc(-c3ccc(Oc4ccccc4)cc3)c3c(N)ncnc32)C1` [ibrutinib] is higher in “CTG-3D luminescence at 96 h” value: 2.95 for the first, 3.41 for the second.

Going from `CNC(=O)c1cccc(-c2ccc3c(N4CCOC[C@@H]4C)nc(N4CCOC[C@@H]4C)nc3n2)c1` [vistusertib] to `CCN(c1cc(C#CCN2CCOCC2)cc(C(=O)NCc2c(C)cc(C)[nH]c2=O)c1C)[C@H]1CC[C@H](N(C)CCOC)CC1`, the “CTG-3D luminescence at 96 h” value rises from 1.95 to 3.35.

Same assay, conditions: 1 µM; days in culture: 52

First: CC(C)(C(=O)NCC(F)(F)C(F)(F)F)C(=O)N[C@@H]1C(=O)Nc2ccccc2-c2ccccc21
Second: C=CC(=O)N1CCC[C@@H](n2nc(-c3ccc(Oc4ccccc4)cc3)c3c(N)ncnc32)C1 [ibrutinib]
The “CTG-3D luminescence at 96 h” value of the first is lower: 1.86 for the first, 2.08 for the second.

Going from `CNC(=O)c1cccc(-c2ccc3c(N4CCOC[C@@H]4C)nc(N4CCOC[C@@H]4C)nc3n2)c1` [vistusertib] to `CCN(c1cc(C#CCN2CCOCC2)cc(C(=O)NCc2c(C)cc(C)[nH]c2=O)c1C)[C@H]1CC[C@H](N(C)CCOC)CC1`, the “CTG-3D luminescence at 96 h” value rises from 0.904 to 2.48.

Same assay, conditions: 1 µM; days in culture: 65

Going from `CC(C)(C(=O)NCC(F)(F)C(F)(F)F)C(=O)N[C@@H]1C(=O)Nc2ccccc2-c2ccccc21` to `C=CC(=O)N1CCC[C@@H](n2nc(-c3ccc(Oc4ccccc4)cc3)c3c(N)ncnc32)C1` [ibrutinib], the “CTG-3D luminescence at 96 h” value rises from 1.7 to 1.79.

First: CNC(=O)c1cccc(-c2ccc3c(N4CCOC[C@@H]4C)nc(N4CCOC[C@@H]4C)nc3n2)c1 [vistusertib]
Second: CCN(c1cc(C#CCN2CCOCC2)cc(C(=O)NCc2c(C)cc(C)[nH]c2=O)c1C)[C@H]1CC[C@H](N(C)CCOC)CC1
The “CTG-3D luminescence at 96 h” value of the first is lower: 0.708 for the first, 1.78 for the second.

Same assay, conditions: 1 µM; days in culture: 103

Compared with `CC(C)(C(=O)NCC(F)(F)C(F)(F)F)C(=O)N[C@@H]1C(=O)Nc2ccccc2-c2ccccc21`, `C=CC(=O)N1CCC[C@@H](n2nc(-c3ccc(Oc4ccccc4)cc3)c3c(N)ncnc32)C1` [ibrutinib] is higher in “CTG-3D luminescence at 96 h” value: 2.98 for the first, 3.26 for the second.

Going from `CNC(=O)c1cccc(-c2ccc3c(N4CCOC[C@@H]4C)nc(N4CCOC[C@@H]4C)nc3n2)c1` [vistusertib] to `CCN(c1cc(C#CCN2CCOCC2)cc(C(=O)NCc2c(C)cc(C)[nH]c2=O)c1C)[C@H]1CC[C@H](N(C)CCOC)CC1`, the “CTG-3D luminescence at 96 h” value rises from 1.51 to 3.09.

Same assay, conditions: 10 µM; days in culture: 52

Compared with `CC(C)(C(=O)NCC(F)(F)C(F)(F)F)C(=O)N[C@@H]1C(=O)Nc2ccccc2-c2ccccc21`, `C=CC(=O)N1CCC[C@@H](n2nc(-c3ccc(Oc4ccccc4)cc3)c3c(N)ncnc32)C1` [ibrutinib] is lower in “CTG-3D luminescence at 96 h” value: 1.9 for the first, 1.47 for the second.

Going from `CNC(=O)c1cccc(-c2ccc3c(N4CCOC[C@@H]4C)nc(N4CCOC[C@@H]4C)nc3n2)c1` [vistusertib] to `CCN(c1cc(C#CCN2CCOCC2)cc(C(=O)NCc2c(C)cc(C)[nH]c2=O)c1C)[C@H]1CC[C@H](N(C)CCOC)CC1`, the “CTG-3D luminescence at 96 h” value rises from 0.76 to 2.29.
